# Earlier results in patent US6417229B1, “α-sulfonylamino hydroxamic acid inhibitors of matrix metalloproteinases for the treatment of peripheral or central nervous system disorders” (Pfizer Inc, priority 1999, dated 2002).
# Experiments:
# [1] = test system: Experimental Autoimmune Neuritis (EAN); conditions: Redford et al. 1997
# [2] = test system: Experimental Autoimmune Encephelomyelitis (EAE); conditions: mice with EAE; Gijbels 1994
# MMP-9 induction by Aβ = conditions: rat microglia; Gottschall 1996
smiles,measurement,setting,value
C=CC[C@H](C(=O)NO)[C@@H](CC(C)C)C(=O)N[C@@H](Cc1ccccc1)C(=O)NC [BB-1101],effect on EAN,[1],attenuates Experimental Autoimmune Neuritis (EAN)
CNC(=O)[C@H](Cc1c[nH]c2ccccc12)NC(=O)[C@@H](CC(=O)NO)CC(C)C [GM6001],effect on EAE,[2],"suppress the development of, or reverse established, EAE"
COc1ccc2c(c1)c(CC(=O)O)c(C)n2C(=O)c1ccc(Cl)cc1 [indomethacin],inhibition of MMP-9 induction by Aβ,MMP-9 induction by Aβ,can be inhibited
